This note sets out measurements from PMC3227451, “Structure-based development of novel sirtuin inhibitors” (Aging (Albany NY), 2011).

As a reminder, the IC50 is the concentration at which inhibition is half-maximal. Read a high IC50 as lower potency. The inhibition is the drop in the measured response relative to a control, in per cent.

Experiment [1] concerns the target T1, Sirt2 (Homo sapiens, UniProt Q8IXJ6).
T1 sequence (Q8IXJ6 34-356): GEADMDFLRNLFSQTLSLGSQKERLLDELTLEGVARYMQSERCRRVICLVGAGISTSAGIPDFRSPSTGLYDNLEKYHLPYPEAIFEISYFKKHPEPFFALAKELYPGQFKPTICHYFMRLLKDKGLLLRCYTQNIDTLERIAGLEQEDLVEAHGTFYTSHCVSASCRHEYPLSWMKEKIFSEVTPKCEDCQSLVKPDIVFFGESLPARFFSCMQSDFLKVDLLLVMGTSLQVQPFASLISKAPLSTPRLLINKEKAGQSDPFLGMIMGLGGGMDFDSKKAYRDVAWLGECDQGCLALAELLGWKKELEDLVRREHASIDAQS
The experiment in a line: Fluor-de-Lys peptide deacetylation assay, Sirt2. It is filed as biochemical. The method, boiled down:
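Full-length human Sirt2 (E. coli-expressed, purified, His-tag removed) incubated 30 min at 37 °C with 0.1 mM FdL-2 peptide (QPK(acetyl-K)), 0.5 mM NAD+ and compound at 100 μM final in kit buffer. Values corrected with compound-only (no Sirtuin) controls; screen in duplicate, dose-response in triplicate.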

For experiment [2], the target named is T2, Sirt2 (α-tubulin Lys40 deacetylation) (Homo sapiens, UniProt Q8IXJ6).
T2 construct: Human gene fragment comprising Sirt2 residues 34-356; His-tag with linker comprising a TEV protease cleavage site (N, cleaved yes); made in house; host or cells: E. coli Rosetta2; the protein was added to HEK 293T cell lysate
T2 sequence (Q8IXJ6 34-356): T1 sequence (Q8IXJ6 34-356)
The experiment can be described thus: Tubulin deacetylation assay in HEK cell lysates with added Sirt2. It is filed as biochemical. The settings on record: 100 μM compound, 1 μg Sirt2. The protocol:
Our novel compounds 3 and 4 are potent and specific Sirt2 inhibitors in vitro, and we next tested the effect of 4 (compound 3 is likely to be sensitive to esterase activity in lysates) on the Sirt2-dependent deacetylation of an in vivo substrate in a physiological environment. The acetylation levels of the Sirt2-deacetylation site Lys40 in α-tubulin [12] were analyzed in HEK cell lysates by using an acetyl-Lys40 specific antibody (Figure 4a). […] Thus, compound 4 is an inhibitor for the physiological α-tubulin deacetylation activity of Sirt2.
HEK 293T cells were grown in DMEM medium (PAN Biotech) supplemented with 10% fetal bovine serum (PAN Biotech) at 37°C and 5% CO2. Cells were harvested, washed with PBS, and resuspended and lysed using hypotonic buffer (10mM Tris-HCl, pH 8.0, 3mM KCl) supplemented with protease inhibitors cocktail. Cell debris was removed by centrifugation (10,000g, 10 minutes) at 4°C, and 50μl reaction were prepared with identical amounts of cell lysate and either 100 μM compound 4, 1 μg Sirt2, or both. All samples further contained the same amount of DMSO (to account for the solvent of the stock of 4) and 25 mM HEPES (pH 7.5; to compensate for the solvent of the NAD^+ stock). […]

For `CC12Cc3cnc(-c4ccccc4)nc3CC1CCC1C2CCC2(C)C1CCC2(C)O` (stereo not shown) [CSC13, 1,11a,13a-trimethyl-8-phenyl-2,3,3a,3b,4,5,5a,6,11,11a,11b,12,13,13a-tetradecahydro-1H-cyclopenta[5,6]naphtho[1,2-g]quinazolin-1-ol], in experiment [1], the “Effect on the activity of Sirt2” value was “inhibition (key: inhibition: significant inhibitory effects (>25% loss of activity); ---: no such effect)” and the IC50 is 9.7 ± 1.5 µM. Besides, the inhibition at 100 µM in experiment [1] (read-out: Sirt2 inhibition in the screen) was ~80%. Further, the “effect on Sirt2-dependent α-tubulin Lys40 deacetylation” value in experiment [2] is given as “the deacetylation effect was decreased”.
